# In patent US11071730B2, “Substituted 6-azabenzimidazole compounds” (Gilead Sciences, Inc., priority 2018, dated 2021):
# Target: human HPK1 (MAP4K1) (Homo sapiens (Human), UniProt Q92918)
# Assay: HPK1 IC50 Assay (TR-FRET biochemical kinase assay, STK S1 peptide substrate)
# Conditions: recombinant human HPK1 kinase domain 0.15 nM, 10 μM ATP, 1 μM STK S1 peptide; geometric mean
# Experimental: The enzymatic activity of human HPK1 (MAP4K1) was monitored in a biochemical assay in the presence or absence of compounds and using a synthetic peptide substrate. An increase in phosphorylation of the peptide by HPK1 was indicative of its kinase activity.
# Recombinant HPK1 kinase domain produced via baculovirus infection of insect cells was obtained from Proteros (Proteros Biostructures #PR-0322) and was pre-activated in the presence of 2 mM ATP (Sigma-Aldrich, cat #GE27-2056-01) and 2 mM magnesium chloride for 16 hours at 4° C. The protein reaction mixture was then loaded to a desalting column (Thermo Fisher Scientific, Cat #89889) to remove excess ATP. HPK1 was eluted with buffer containing 20 mM Tris (2-Amino-2-(hydroxymethyl)propane-1,3-diol) pH 8.0, 150 mM NaCl, 2 mM dithiothreitol and 5% glycerol, and was frozen at −80° C. for later use.
# Ten nanoliters of test compounds dissolved in DMSO at various concentrations were dispensed into a 384-well ProxiPlate (PerkinElmer #6008289). Five microliters of a solution of recombinant HPK1 diluted in HPK1 kinase assay buffer (50 mM BES [N,N-Bis(2-hydroxyethyl)-2-aminoethanesulfonic acid], pH 7.0; 10 mM magnesium chloride; 0.01% Triton X-100; 1 mM dithiothreitol; 0.01% bovine serum albumin; 0.1 mM sodium orthovanadate) was added to the compound-containing plate and was incubated for 15 minutes at 25° C. Five microliters of a mixture of ATP (Sigma-Aldrich #A6559) and peptide substrate STK S1 (Cisbio #61ST1BLC) diluted in HPK1 kinase assay buffer was then added to start the reaction. Final concentrations were 0.15 nM for HPK1, 10 μM for ATP, and 1 μM for the STK S1 peptide substrate. The reaction mixture was incubated at 25° C. for 3 hours and was stopped with the addition of 10 μl of an EDTA (Ethylenediaminetetraacetic acid)-containing detection buffer (Cisbio #62SDBRDF) supplemented with Europium cryptate-labeled anti-phospho-serine/threonine antibodies (Cisbio #62ST1PEJ) and XL665-labeled streptavidin (Cisbio #610SAXLG). The mixture was incubated for 16 hours at room temperature and peptide phosphorylation was measured by time-resolved fluorescence energy transfer (665 nm/620 nm) on an Envision plate reader (PerkinElmer).
# Data in Table 1 were normalized based on positive (staurosporine) and negative (DMSO) controls. Least squares curve fittings were performed using a four-parameter variable slope nonlinear regression model. IC50 is defined as the concentration of compound required to inhibit 50% of maximum phosphorylation. IC50 values from multiple experiments were averaged by geometric mean and the standard deviation was calculated.
# Chain of human HPK1 (MAP4K1) (Q92918 17-274): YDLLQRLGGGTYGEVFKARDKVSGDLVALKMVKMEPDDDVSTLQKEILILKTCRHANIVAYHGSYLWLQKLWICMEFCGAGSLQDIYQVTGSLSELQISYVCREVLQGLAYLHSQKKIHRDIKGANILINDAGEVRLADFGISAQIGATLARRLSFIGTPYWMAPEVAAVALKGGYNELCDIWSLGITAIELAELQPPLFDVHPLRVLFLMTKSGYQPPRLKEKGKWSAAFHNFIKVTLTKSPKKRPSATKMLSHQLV
row,IC50 [nM],Compound
1,0.2,CC(C)n1cnc2cc(-c3ccc4c(c3)N([C@H]3C[C@@H](N5CCCC6(CC6)C5)C3)C(=O)C43CCN(C(=O)C(C)(C)CO)CC3)nc(Nc3ccncc3F)c21 [Example 122]
2,0.6,CC(C)n1cnc2cc(-c3ccc4c(c3)N([C@H]3C[C@@H](N5CCC(C)(C)C5)C3)C(=O)C4(C)C)nc(Nc3ccncc3F)c21 [Example 189]
3,0.08,CC(C)n1cnc2cc(-c3ccc4c(c3)N([C@H]3C[C@@H](N5CCCCC5)C3)C(=O)C43CCN(C(=O)C4(C(C)C)COC4)CC3)nc(Nc3ccncc3F)c21 [Example 137]
4,0.4,"CC(=O)N1CCC2(CC1)C(=O)N([C@H]1C[C@@H](N3CCCCC3)C1)c1cc(-c3cc4ncn(C(C)C)c4c(Nc4cc5ccncc5cc4F)n3)ccc12 [Example 105, 1′-acetyl-6-(4-((7-fluoroisoquinolin-6-yl)amino)-3-isopropyl-3H-imidazo[4,5-c]pyridin-6-yl)-1-((1s,3s)-3-(piperidin-1-yl)cyclobutyl)spiro[indoline-3,4′-piperidin]-2-one]"
5,0.4,CC(C)n1cnc2cc(-c3ccc4c(c3)N([C@H]3C[C@@H](N5CCCCC5)C3)C(=O)C43CCN(C(=O)C4(C)COC4)CC3)nc(Nc3ccncc3F)c21 [Example 147]
6,0.3,"CC(=O)N1CCC2(CC1)C(=O)N(C1CC(N3CCCC4(CC4)C3)C1)c1cc(-c3cc4ncn(C(C)C)c4c(Nc4ccncc4F)n3)ccc12 (stereo not drawn) [Example 177, 1-((1s,3s)-3-(5-azaspiro[2.5]octan-5-yl)cyclobutyl)-1′-acetyl-6-(4-((3-fluoropyridin-4-yl)amino)-3-isopropyl-3H-imidazo[4,5-c]pyridin-6-yl)spiro[indoline-3,4′-piperidin]-2-one]"
7,1.3,CC(=O)N1CCC2(CC1)C(=O)N([C@H]1C[C@@H](N3CC4CC4C3)C1)c1cc(-c3cc4ncn(C(C)C)c4c(Nc4ccncc4F)n3)ccc12 (stereo partly drawn) [Example 180]
8,1,CC(C)n1cnc2cc(-c3ccc4c(c3)N([C@H]3C[C@@H](N5CCC(C)(C)C5)C3)C(=O)C43CCN(C(=O)C4(C)COC4)CC3)nc(Nc3cc(Cl)ncc3F)c21 [Example 130]
9,0.2,CC[C@@H](O)C(=O)N1CCC2(CC1)C(=O)N([C@H]1C[C@@H](N3CCC(C)(C)C3)C1)c1cc(-c3cc4ncn(C(C)C)c4c(Nc4ccncc4F)n3)ccc12 [Example 117]
10,0.07,CC(C)n1cnc2cc(-c3ccc4c(c3)N([C@H]3C[C@@H](N5CC6CCC(C6)C5)C3)C(=O)C43CCN(C(=O)C4COC4)CC3)nc(Nc3ccncc3F)c21 [Example 124]
11,0.2,CC(C)n1cnc2cc(-c3ccc4c(c3)N([C@H]3C[C@@H](N5CCCC6(CC6)C5)C3)C(=O)C43CCN(C(=O)CO)CC3)nc(Nc3ccncc3F)c21 [Example 121]
12,0.6,Cc1cc(Nc2nc(-c3ccc4c(c3)N([C@H]3C[C@@H](N5CCC(C)(C)C5)C3)C(=O)C43CCN(C(=O)C(C)(C)CO)CC3)cc3ncn(C(C)C)c23)c(F)cn1 [Example 131]
13,0.2,CC(C)[C@H](O)C(=O)N1CCC2(CC1)C(=O)N([C@H]1C[C@@H](N3CCC(C)(C)C3)C1)c1cc(-c3cc4ncn(C(C)C)c4c(Nc4ccncc4F)n3)ccc12 [Example 119]
14,0.5,CC(C)n1cnc2cc(-c3ccc4c(c3)N([C@H]3C[C@@H](N5CCCCC5)C3)C(=O)C43CCN(C(=O)C4(F)CCC4)CC3)nc(Nc3ccncc3F)c21 [Example 149]
15,0.04,CC(C)n1cnc2cc(-c3ccc4c(c3)N([C@H]3C[C@@H](N5CC6CCC(C6)C5)C3)C(=O)C43CCN(C(=O)C4CCO4)CC3)nc(Nc3ccncc3F)c21 (stereo partly drawn) [Example 125]
16,0.1,CC(C)n1cnc2cc(-c3ccc4c(c3)N([C@H]3C[C@@H](N5CC6CCC(C6)C5)C3)C(=O)C43CCN(C(=O)C4(C)COC4)CC3)nc(Nc3ccncc3F)c21 [Example 123]
17,0.3,CCn1cnc2cc(-c3ccc4c(c3)N([C@H]3C[C@@H](N5CCCCC5)C3)C(=O)C43CCN(C(=O)C45CC(F)(C4)C5)CC3)nc(Nc3ccncc3F)c21 [Example 151]
18,0.2,CC(C)n1cnc2cc(-c3ccc4c(c3)N([C@H]3C[C@@H](N5C[C@H]6CC[C@H]6C5)C3)C(=O)C43CCN(C(=O)C4(C)COC4)CC3)nc(Nc3ccncc3F)c21 [Example 110]

row,Compound,IC50 [nM]
1,CC(C)n1cnc2cc(-c3ccc4c(c3)N([C@H]3C[C@@H](N5C6COCC5C6)C3)C(=O)C4(C)C)nc(Nc3ccncc3F)c21 [Example 190],2.1

# Same assay, conditions: recombinant human HPK1 kinase domain 0.15 nM, 10 μM ATP, 1 μM STK S1 peptide; geometric mean of multiple experiments
row,IC50 [nM],Compound
1,0.5,CC(C)n1cnc2cc(-c3ccc4c(c3)N([C@H]3C[C@@H](N5CCCCC5)C3)C(=O)C43CCN(C(=O)C4(C)CC4)CC3)nc(Nc3ccncc3F)c21 [Example 27]
2,0.2,CC(C)n1cnc2cc(-c3ccc4c(c3)N([C@H]3C[C@@H](N5CCC(C)(C)C5)C3)C(=O)C43CCN(C(=O)[C@H]4CCCO4)CC3)nc(Nc3ccncc3F)c21 [Example 14]
3,0.6,CC(=O)N1CCC2(CC1)C(=O)N([C@H]1C[C@@H](N3CCC[C@@H](C)C3)C1)c1cc(-c3cc4ncn(C(C)C)c4c(Nc4ccncc4F)n3)ccc12 [Example 32]
4,5.6,CC(=O)N1CCC2(CC1)C(=O)N([C@H]1C[C@@H](N3CCCCC3)C1)c1cc(-c3cc4ncn(C(C)C)c4c(Nc4ncc(F)cc4F)n3)ccc12 [Example 69]
5,1.3,CC(C)n1cnc2cc(-c3ccc4c(c3)N([C@H]3C[C@@H](NCC(C)(C)F)C3)C(=O)C4(C)C)nc(Nc3ccncc3F)c21 [Example 64]
6,0.3,CC(C)n1cnc2cc(-c3ccc4c(c3)N([C@H]3C[C@@H](N5CCCCC5)C3)C(=O)C4(C)C)nc(Nc3ccnc(F)c3F)c21 [Example 94]
7,0.2,CC(C)n1cnc2cc(-c3ccc4c(c3)N([C@H]3C[C@@H](N5CCC(C)(C)C5)C3)C(=O)C43CCN(C(=O)[C@@H]4CCCO4)CC3)nc(Nc3ccncc3F)c21 [Example 13]
8,1.6,"CC(C)n1cnc2cc(-c3ccc4c(c3)N([C@H]3C[C@@H](NCC(C)(C)O)C3)C(=O)C4(C)C)nc(Nc3ccncc3F)c21 [Example 52, 6-(4-((3-fluoropyridin-4-yl)amino)-3-isopropyl-3H-imidazo[4,5-c]pyridin-6-yl)-1-((1s,3s)-3-((2-hydroxy-2-methylpropyl)amino)cyclobutyl)-3,3-dimethylindolin-2-one]"
9,0.5,CC(C)n1cnc2cc(-c3ccc4c(c3)N([C@H]3C[C@@H](N5CCCCC5)C3)C(=O)C43CCN(C(=O)[C@@H](C)O)CC3)nc(Nc3ccncc3F)c21 [Example 2]
10,0.3,CC(C)n1cnc2cc(-c3ccc4c(c3)N([C@H]3C[C@@H](N5CCC(C)(C)C5)C3)C(=O)C43CCN(C(=O)[C@H]4CCOC4)CC3)nc(Nc3ccncc3F)c21 [Example 16]
11,1.2,"CC(C)n1cnc2cc(-c3ccc4c(c3)N([C@H]3C[C@@H](N5CCCCC5)C3)C(=O)[C@@]4(C)O)nc(Nc3ccncc3F)c21 [Example 55A, 6-(4-((3-fluoropyridin-4-yl)amino)-3-isopropyl-3H-imidazo[4,5-c]pyridin-6-yl)-3-hydroxy-3-methyl-1-((1s,3s)-3-(piperidin-1-yl)cyclobutyl)indolin-2-one]"
12,2.5,CC(C)n1cnc2cc(-c3cnc4c(c3)N([C@H]3C[C@@H](N5CCCCC5)C3)C(=O)C4(C)C)nc(Nc3ccnc(F)c3F)c21 [Example 95]

row,Compound,IC50 [nM]
1,CC(C)n1cnc2cc(-c3ccc4c(c3)N([C@H]3C[C@@H](N5CC[C@H](C)C5)C3)C(=O)C43CCN(C4COC4)CC3)nc(Nc3ccncc3F)c21 [Example 47],1.6
2,CC(C)n1cnc2cc(-c3ccc4c(c3)N([C@H]3C[C@@H](N5CCCCC5)C3)C(=O)C43CCN(C4COC4)CC3)nc(Nc3cc(F)ncc3F)c21 [Example 92],1.9
3,CC(C)n1cnc2cc(-c3ccc4c(c3)N([C@H]3C[C@@H](N5CCC[C@@H](F)C5)C3)C(=O)C43CCN(C4COC4)CC3)nc(Nc3ccncc3F)c21 [Example 79],0.4
4,"CC(C)n1cnc2cc(-c3ccc4c(c3)N([C@H]3C[C@@H](N5CCC(C)(C)C5)C3)C(=O)C43CCN(C(=O)C4CCO4)CC3)nc(Nc3ccncc3F)c21 (single isomer, unassigned) [Example 78A, 1-((1s,3s)-3-(3,3-dimethylpyrrolidin-1-yl)cyclobutyl)-6-(4-((3-fluoropyridin-4-yl)amino)-3-isopropyl-3H-imidazo[4,5-c]pyridin-6-yl)-1′-(oxetane-2-carbonyl)spiro[indoline-3,4′-piperidin]-2-one]",0.3
5,CC[C@H](C)n1cnc2cc(-c3ccc4c(c3)N([C@H]3C[C@@H](N5CCC(C)(C)C5)C3)C(=O)C43CCN(C4COC4)CC3)nc(Nc3ccncc3F)c21 [Example 90],0.3
